Source: patent US9346794B1, “Substituted 4-pyridones and their use as inhibitors of neutrophil elastase activity” (Boehringer Ingelheim International GmbH, priority 2012, dated 2016)

Biological target: Human neutrophil elastase (Homo sapiens (Human), UniProt P08246)
Assay: Human Neutrophil Elastase Assay
Assay type: biochemical
Settings: substrate MeOSuc-Ala-Ala-Pro-Val-AMC 250 μM, fluorescence, pH 7.5
Procedure: Human Neutrophil Elastase Assay
All other materials were of the highest grade commercially available.
The following buffers were used: Compound buffer: 100 mM Tris, 500 mM NaCl, adjusted to pH 7.5; Assay buffer: 100 mM Tris, 500 mM NaCl, adjusted to pH 7.5, containing 0.01% BSA.
Assay conditions: Test compounds were prediluted in DMSO and subsequently in compound buffer (5% DMSO final). […] After inactivation of the enzyme, fluorescence intensities were measured at 380 nm excitation and 460 nm emission wavelengths.
Each plate contains wells with a high value control (DMSO+enzyme+substrate) and wells with a low value control (DMSO+inactivated enzyme+substrate). IC50 values were estimated using a sigmoidal concentration response curve with variable slope. Means of low values were taken as 0%, means of high values as 100%. IC50 values of selected compound in the Neutrophil Elastase assay: […]

Sequence of Human neutrophil elastase (P08246 30-247): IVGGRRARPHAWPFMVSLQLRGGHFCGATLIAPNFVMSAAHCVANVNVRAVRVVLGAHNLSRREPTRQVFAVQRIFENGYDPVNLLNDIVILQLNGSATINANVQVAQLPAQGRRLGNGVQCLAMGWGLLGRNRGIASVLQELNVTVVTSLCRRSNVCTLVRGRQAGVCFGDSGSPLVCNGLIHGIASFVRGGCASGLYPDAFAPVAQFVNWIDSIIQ

Going from Cc1c(-c2ccnc(C(F)(F)F)c2)c(=O)c(C(=O)NCc2ccc(S(C)(=O)=NC#N)cc2)cn1C(C)C (single isomer, unassigned) [Example 3A, 1-Isopropyl-2-methyl-4-oxo-2′-trifluoromethyl-1,4-dihydro-[3,4′]-bipyridinyl-5-carboxylic acid 4-(N-cyano-S-methylsulfonimidoyl)-benzylamide] to Cc1c(-c2ccc(F)c(C(F)F)c2)c(=O)c(C(=O)NCc2ccc(S(C)(=O)=NC#N)cc2)cn1C(C)C (single isomer, unassigned) [Example 42], the IC50 falls from 12 nM to 4.7 nM (2.6-fold). The second is the more potent here.

Cc1c(-c2cccc(C(F)(F)F)c2)c(=O)c(C(=O)NCc2ccc(S(C)(=O)=NC#N)cc2)cn1C1CCCOC1 (stereo not drawn) [Example 55] and Cc1c(-c2cccc(C(F)(F)F)c2)c(=O)c(C(=O)NCc2ccc(S(C)(=O)=NC#N)cc2)cn1C1CCOC1 (stereo not drawn) [Example 54] are within 1.5-fold of each other in IC50: 1.8 nM for the first, 2.3 nM for the second.

Going from Cc1c(-c2cccc(C(F)(F)F)c2)c(=O)c(C(=O)NCc2ccc(S(C)(=O)=NC#N)cc2)cn1Cc1ccc(C#N)cc1 (stereo not drawn) [Example 9, 1-(4-Cyano-benzyl)-6-methyl-4-oxo-5-(3-trifluoromethyl-phenyl)-1,4-dihydro-pyridine-3-carboxylic acid 4-(N-cyano-S-methylsulfonimidoyl)-benzylamide] to Cc1c(-c2cccc(C(F)(F)F)c2)c(=O)c(C(=O)NCc2ccc(S(C)(=O)=NC#N)cc2)cn1-c1ccccc1 (single isomer, unassigned) [Example 24], the IC50 rises from under 1 nM to 5.5 nM. The first is the more potent here.

Cc1c(-c2cccc(C(F)F)c2)c(=O)c(C(=O)NCc2ccc(S(C)(=O)=NC#N)cc2)cn1-c1ccncc1 (single isomer, unassigned) [Example 40] and Cc1c(-c2cccc(C(F)F)c2)c(=O)c(C(=O)NCc2ccc(S(C)(=O)=NC#N)cc2)cn1-c1cccnc1 (single isomer, unassigned) [Example 39] are within 1.5-fold of each other in IC50: 4 nM for the first, 3.7 nM for the second.

Cc1c(-c2cccc(C(F)(F)F)c2)c(=O)c(C(=O)NCc2ccc(S(=O)(=NC#N)C(C)C)cc2)cn1C1CC1 (single isomer, unassigned) [Example 22A] and Cc1c(-c2cccc(C(F)(F)F)c2)c(=O)c(C(=O)NCc2ccc(S(C)(=O)=NC#N)cc2)cn1C1CC1 (single isomer, unassigned) [Example 20] are within 1.5-fold of each other in IC50: 4.5 nM for the first, 5.6 nM for the second.

Cc1c(-c2cccc(C(F)(F)F)c2)c(=O)c(C(=O)NCc2ccc(S(C)(=O)=NC#N)c(F)c2)cn1C(C)C (stereo not drawn) [Example 13] and Cc1cc(CNC(=O)c2cn(C(C)C)c(C)c(-c3cccc(C(F)(F)F)c3)c2=O)ccc1S(C)(=O)=NC#N (stereo not drawn) [Example 66, 1-Isopropyl-6-methyl-4-oxo-5-(3-trifluoromethyl-phenyl)-1,4-dihydro-pyridine-3-carboxylic acid 3-methyl-4-(N-cyano-S-methylsulfonimidoyl)-benzylamide] are within 1.5-fold of each other in IC50: 2.4 nM for the first, 3.4 nM for the second.

Going from Cc1ccncc1-n1cc(C(=O)NCc2ccc(S(C)(=O)=NC#N)cc2)c(=O)c(-c2cccc(C(F)(F)F)c2)c1C (stereo not drawn) [Example 57] to Cc1c(-c2cccc(C(F)(F)F)c2)c(=O)c(C(=O)NCc2ccc(S(C)(=O)=NC#N)cc2)cn1-c1cccnc1 (single isomer, unassigned) [Example 26], the IC50 rises from 1.7 nM to 3.3 nM (1.9-fold). The first is the more potent here.

Cc1c(-c2cccc(C(F)F)c2)c(=O)c(C(=O)NCc2ccc(S(C)(=O)=NC#N)cc2F)cn1C(C)C (stereo not drawn) [Example 33] and Cc1cc(S(C)(=O)=NC#N)ccc1CNC(=O)c1cn(C(C)C)c(C)c(-c2cccc(C(F)F)c2)c1=O (stereo not drawn) [Example 34] are within 1.5-fold of each other in IC50: 2.5 nM for the first, 2.4 nM for the second.

Compared with Cc1c(-c2cccc(C(F)(F)F)c2)c(=O)c(C(=O)NCc2ccc(S(C)(=O)=NC#N)cc2)cn1-c1ccccn1 (single isomer, unassigned) [Example 25], Cc1c(-c2cccc(C(F)(F)F)c2)c(=O)c(C(=O)NCc2ccc(S(C)(=O)=NC#N)cc2)cn1-c1ccnn1C (stereo not drawn) [Example 8, 6-Methyl-1-(2-methyl-2H-pyrazol-3-yl)-4-oxo-5-(3-trifluoromethyl-phenyl)-1,4-dihydro-pyridine-3-carboxylic acid 4-(N-cyano-S-methylsulfonimidoyl)-benzylamide] is 1.8-fold lower in IC50: 4.3 nM for the first, 2.4 nM for the second. The second is the more potent here.

Compared with Cc1c(-c2ccnc(C(F)(F)F)c2)c(=O)c(C(=O)NCc2ccc(S(C)(=O)=NC#N)cc2)cn1C(C)C (single isomer, unassigned) [Example 3B, 1-Isopropyl-2-methyl-4-oxo-2′-trifluoromethyl-1,4-dihydro-[3,4′]-bipyridinyl-5-carboxylic acid 4-(N-cyano-S-methylsulfonimidoyl)-benzylamide], CCS(=O)(=NC#N)c1ccc(CNC(=O)c2cn(C(C)C)c(C)c(-c3cccc(C(F)(F)F)c3)c2=O)cc1 (stereo not drawn) [Example 12] is lower in IC50: 5.1 nM for the first, under 1 nM for the second.

First: CCn1cc(C(=O)NCc2ccc(S(=O)(CC)=NC#N)cc2)c(=O)c(-c2cccc(C(F)F)c2)c1C (single isomer, unassigned) [Example 29B]
Second: CCn1cc(C(=O)NCc2ccc(S(=O)(CC)=NC#N)cc2)c(=O)c(-c2cccc(C(F)(F)F)c2)c1C (stereo not drawn) [Example 10]
The IC50 of the first is lower: under 1 nM for the first, 1.2 nM for the second.

First: Cc1noc(-n2cc(C(=O)NCc3ccc(S(C)(=O)=NC#N)cc3)c(=O)c(-c3cccc(C(F)(F)F)c3)c2C)c1C (stereo not drawn) [Example 49]
Second: Cc1c(-c2cccc(C(F)(F)F)c2)c(=O)c(C(=O)NCc2ccc(S(=O)(=NC#N)C(C)C)cc2)cn1-c1ccnn1C (stereo not drawn) [Example 19]
The IC50 of the first is 7.3-fold higher: 7.3 nM for the first, 1 nM for the second.

Cc1c(-c2cccc(C(F)(F)F)c2)c(=O)c(C(=O)NCc2ccc(S(C)(=O)=NC#N)c[n+]2[O-])cn1C(C)C (stereo not drawn) [Example 62, 5-(3-Trifluoromethyl-phenyl)-1-isopropyl-6-methyl-4-oxo-1,4-dihydro-pyridine-3-carboxylic acid (5-(N-cyano-S-methylsulfonimidoyl)-1-oxy-pyridin-2-yl)-methylamide] and Cc1c(-c2cccc(C(F)(F)F)c2)c(=O)c(C(=O)NCc2ccc(S(C)(=O)=NC#N)cn2)cn1C(C)C (stereo not drawn) [Example 16, 5-(3-trifluoromethyl-phenyl)-1-isopropyl-6-methyl-4-oxo-1,4-dihydro-pyridine-3-carboxylic acid (5-(N-cyano-S-methylsulfonimidoyl)pyridin-2-yl)methylamide] are within 1.5-fold of each other in IC50: 2.7 nM for the first, 1.9 nM for the second.

Going from Cc1c(-c2cccc(C(F)F)c2)c(=O)c(C(=O)NCc2ccc(S(=O)(=NC#N)C(C)C)cc2)cn1-c1ccnn1C (stereo not drawn) [Example 37] to Cc1c(-c2cccc(C(F)F)c2)c(=O)c(C(=O)NCc2ccc(S(C)(=O)=NC#N)cc2)cn1-c1ccnn1C (stereo not drawn) [Example 7, 5-(3-Difluoromethyl-phenyl)-6-methyl-1-(2-methyl-2H-pyrazol-3-yl)-4-oxo-1,4-dihydro-pyridine-3-carboxylic acid 4-(N-cyano-S-methylsulfonimidoyl)-benzylamide], the IC50 rises from under 1 nM to 2.1 nM.

First: CCn1cc(C(=O)NCc2ccc(S(=O)(CC)=NC#N)cc2)c(=O)c(-c2cccc(C(F)F)c2)c1C (single isomer, unassigned) [Example 29A]
Second: CCn1cc(C(=O)NCc2ccc(S(=O)(CC)=NC#N)cc2)c(=O)c(-c2cccc(C(F)(F)F)c2)c1C (single isomer, unassigned) [Example 10B]
The IC50 of the first is 1.8-fold higher: 2.2 nM for the first, 1.2 nM for the second.

Cc1c(-c2cccc(C(F)F)c2)c(=O)c(C(=O)NCc2ccc(S(C)(=O)=NC#N)c(F)c2)cn1C(C)C (stereo not drawn) [Example 32] and Cc1c(-c2cccc(C(F)(F)F)c2)c(=O)c(C(=O)NCc2ccc(S(C)(=O)=NC#N)cc2F)cn1C(C)C (stereo not drawn) [Example 14] are within 1.5-fold of each other in IC50: 1.1 nM for the first, 1.5 nM for the second.

Cc1c(-c2cccc(C(F)(F)F)c2)c(=O)c(C(=O)NCc2ccc(S(C)(=O)=NC#N)cc2)cn1C1CCOCC1 (stereo not drawn) [Example 53] and CCS(=O)(=NC#N)c1ccc(CNC(=O)c2cn(C3CC3)c(C)c(-c3cccc(C(F)(F)F)c3)c2=O)cc1 (single isomer, unassigned) [Example 21B] are within 1.5-fold of each other in IC50: 2.3 nM for the first, 2.1 nM for the second.

Cc1c(-c2ccnc(C(F)(F)F)c2)c(=O)c(C(=O)NCc2ccc(S(C)(=O)=NC#N)cc2)cn1-c1cccnc1 (single isomer, unassigned) [Example 45] and Cc1c(-c2ccnc(C(F)(F)F)c2)c(=O)c(C(=O)NCc2ccc(S(C)(=O)=NC#N)cc2)cn1-c1ccncc1 (single isomer, unassigned) [Example 46] are within 1.5-fold of each other in IC50: 14.4 nM for the first, 11.7 nM for the second.

First: CN=S(C)(=O)c1ccc(CNC(=O)c2cn(C(C)C)c(C)c(-c3cccc(C(F)(F)F)c3)c2=O)cc1 (stereo not drawn) [Example 67, 1-Isopropyl-6-methyl-4-oxo-5-(3-trifluoromethyl-phenyl)-1,4-dihydro-pyridine-3-carboxylic acid 4-(N,S-dimethylsulfonimidoyl)-benzylamide]
Second: Cc1c(-c2cccc(C(F)(F)F)c2)c(=O)c(C(=O)NCc2ccc(S(=O)(=NC#N)C3CC3)cc2)cn1C(C)C (stereo not drawn) [Example 63, 1-Isopropyl-6-methyl-4-oxo-5-(3-trifluoromethyl-phenyl)-1,4-dihydro-pyridine-3-carboxylic acid 4-(S-cyclopropyl-N-cyanosulfonimidoyl)-benzylamide]
The IC50 of the first is 35-fold higher: 49.3 nM for the first, 1.4 nM for the second. The second is the more potent here.

Going from Cc1c(-c2ccnc(C(F)(F)F)c2)c(=O)c(C(=O)NCc2ccc(S(C)(=O)=NC#N)cc2)cn1-c1ccccc1 (single isomer, unassigned) [Example 43] to Cc1c(-c2cccc(C(F)F)c2)c(=O)c(C(=O)NCc2ccc(S(C)(=O)=NC#N)cc2)cn1C1CCC1 (stereo not drawn) [Example 6, 5-(3-Difluoromethyl-phenyl)-1-cyclobutyl-6-methyl-4-oxo-1,4-dihydro-pyridine-3-carboxylic acid 4-(N-cyano-S-methylsulfonimidoyl)-benzylamide], the IC50 falls from 13.4 nM to 2.4 nM (5.6-fold).

Compared with CCn1cc(C(=O)NCc2ccc(S(=O)(CC)=NC#N)cc2)c(=O)c(-c2cccc(C(F)F)c2)c1C (stereo not drawn) [Example 29], Cc1c(-c2cccc(C(F)F)c2)c(=O)c(C(=O)NCc2ccc(S(C)(=O)=NS(C)(=O)=O)cc2)cn1C(C)C (stereo not drawn) [Example 35] is 5.3-fold higher in IC50: 1.5 nM for the first, 8 nM for the second. The first is the more potent here.
